Measurements reported in article PMC7887271, “Fast acting allosteric phosphofructokinase inhibitors block trypanosome glycolysis and cure acute African trypanosomiasis in mice” (Nature Communications, 2021).
Several values for one entry are separate records, joined by “and”; a condition that tells them apart may be missing. Equal values may be shown once.

Tests used:
TbPFK = molecular target: T1, TbPFK (Trypanosoma brucei brucei, UniProt O15648); assay: ALDO/G3PDH/TIM linked enzyme assay for measuring PFK inhibition; assay type: biochemical; parameters: key: absorbance at 340 nm (NADH)
T1 construct: made in house; host or cells: Escherichia coli C41 (pET28a, codon optimised gene)
T1 sequence (O15648 1-487): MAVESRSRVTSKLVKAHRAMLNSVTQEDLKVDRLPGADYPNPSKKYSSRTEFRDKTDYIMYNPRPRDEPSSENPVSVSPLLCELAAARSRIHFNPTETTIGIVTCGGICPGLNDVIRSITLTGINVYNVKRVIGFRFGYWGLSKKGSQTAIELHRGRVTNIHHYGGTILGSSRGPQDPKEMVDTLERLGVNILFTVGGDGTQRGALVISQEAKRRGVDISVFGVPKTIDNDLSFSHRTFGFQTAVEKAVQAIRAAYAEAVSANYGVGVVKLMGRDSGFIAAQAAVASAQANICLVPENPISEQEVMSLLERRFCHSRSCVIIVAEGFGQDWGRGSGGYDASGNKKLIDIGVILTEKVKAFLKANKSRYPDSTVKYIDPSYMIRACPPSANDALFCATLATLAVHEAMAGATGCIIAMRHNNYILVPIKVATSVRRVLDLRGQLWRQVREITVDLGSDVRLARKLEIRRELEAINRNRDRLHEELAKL
Protocol: In the PFK/PYK/LDH assay, the linked PYK activity acts to convert the ADP produced by PFK back to ATP. As ATP is an inhibitor of human PFK (but not TbPFK) at concentrations higher than ~0.5 mM the regeneration of ATP is likely to affect the assay readout. An alternative linked assay was therefore developed using PFK/aldolase (ALDO)/glycerol-3-phosphate dehydrogenase (G3PD)/triosephosphate isomerase (TIM). In this assay F16BP produced by PFK is subsequently converted by aldolase into dihydroxyacetone phosphate (DHAP) and glyceraldehyde 3-phosphate (GA3P). TIM interconverts GA3P and DHAP, and DHAP is reduced to glycerol 3-phosphate by G3PD, alongside the oxidation of NADH to NAD^+, which was measured by observing the change in UV absorbance at 340 nm for 10 minutes at 25° C using a Spectramax© M5 Multimode plate reader.
The assay buffer consisted of 50 mM TEA, 100 mM KCl, 10 mM MgCl2, 10% glycerol, 1 mM Tris(2-carboxyethyl)phosphine (TCEP), pH 7.4. Assay mix consisted of 5 U/ml G3PD (Sigma-Aldrich G6880), 2.5 U/ml ALDO (Sigma-Aldrich A2714), 25 U/ml TIM (Sigma-Aldrich T6258), and 1.25 mM NADH. ATP and F6P were obtained from Sigma-Aldrich (A2383 and F3627, respectively). All ligands and substrates (including ATP) were used at pH 7.4). 40 µl of assay mix, followed by 45 µl assay buffer, 4 µl of 0.1 mg/ml PFK and 1 µl of 100x serially diluted inhibitors were added to a non-binding, clear 96-well plate (Greiner Bio-One 655901) and incubated at RT for 10 minutes. The reaction was started by addition of 10 µl of 6 mM F6P (Supplementary Table 1).

CYP2D6 = molecular target: T2, CYP2D6 (Homo sapiens, UniProt P10635); assay: Inhibition of CYP2D6; assay type: in vitro ADME; conditions: CYP450 isoform inhibition kit (BD Biosciences), probe AMMC
T2 construct: purchased BD Biosciences
T2 sequence (P10635 whole entry, canonical isoform): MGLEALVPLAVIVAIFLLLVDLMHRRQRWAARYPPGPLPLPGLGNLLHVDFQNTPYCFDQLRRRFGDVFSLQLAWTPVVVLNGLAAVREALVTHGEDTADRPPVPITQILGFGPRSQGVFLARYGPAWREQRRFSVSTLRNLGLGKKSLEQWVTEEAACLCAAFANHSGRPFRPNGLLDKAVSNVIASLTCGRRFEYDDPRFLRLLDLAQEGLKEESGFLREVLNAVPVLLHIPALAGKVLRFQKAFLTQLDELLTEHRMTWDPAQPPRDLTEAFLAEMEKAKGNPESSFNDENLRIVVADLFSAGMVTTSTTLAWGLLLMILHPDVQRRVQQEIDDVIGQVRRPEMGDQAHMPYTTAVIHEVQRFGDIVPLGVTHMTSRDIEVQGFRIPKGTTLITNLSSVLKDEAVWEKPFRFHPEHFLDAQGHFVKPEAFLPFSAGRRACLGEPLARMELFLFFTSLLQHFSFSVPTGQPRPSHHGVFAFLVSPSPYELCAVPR
Protocol: A HepG2 cytotoxicity assay was used to determine a cellular selectivity index. HepG2 cells were seeded into 96-well plates in EMEM medium. Compounds were assessed for their effect upon cellular viability (Supplementary Methods 5.1). Inhibition of CYP450 was determined using kits from BD Biosciences (Supplementary Methods 5.2). Metabolic stability was determined using mouse […] tested at a single concentration of 5 µM. Plasma protein binding was determined using mouse and human plasma at a single concentration of 10 µM (Supplementary Methods 5.4). All PK studies in mice were carried out by Pharmidex (Supplementary Methods 6.1).
The compounds were investigated for their inhibitory effect on cytochrome P450 (CYP450) activity using five CYP450 isoforms (with fluorescent substrates in brackets): 3A4 (two substrates, BFC and DBF), 2D6 (AMMC), 2C9 (MFC), 2C19 (CEC) and 1A2 (CEC). Kits from BD Biosciences were used along with the method described by the manufacturer. […] Fluorescence was measured using a SpectraMax M5 plate reader.

In the case of `CN(C)CCn1ccc2c(ccn2Cc2ccc(Cl)c(Cl)c2)c1=O` [CTCB 405], the “TbPFK reaction time course reading (Figure 6a)” value (TbPFK; 0.02 uM CTCB 405, time 0.104167) is reported as 0.5676 and 0.5291, the “TbPFK reaction time course reading (Figure 6a)” value (TbPFK; 0.02 uM CTCB 405, time 0.121528) is reported as 0.545 and 0.5077 and the “TbPFK reaction time course reading (Figure 6a)” value (TbPFK; 0.02 uM CTCB 405, time 0.138889) is reported as 0.5241 and 0.488. For the same compound, the “TbPFK reaction time course reading (Figure 6a)” value (TbPFK; 0.02 uM CTCB 405, time 0.15625) was 0.5057 and 0.4696, the “TbPFK reaction time course reading (Figure 6a)” value (TbPFK; 0.02 uM CTCB 405, time 0.173611) was 0.4873 and 0.4524 and the “TbPFK reaction time course reading (Figure 6a)” value (TbPFK; 0.02 uM CTCB 405, time 0.190972) was 0.4705 and 0.4366. For the same compound, the “TbPFK reaction time course reading (Figure 6a)” value (TbPFK; 0.05 uM CTCB 405, time 0.104167) was 0.6118 and 0.5698, the “TbPFK reaction time course reading (Figure 6a)” value (TbPFK; 0.05 uM CTCB 405, time 0.121528) was 0.5919 and 0.5511 and the “TbPFK reaction time course reading (Figure 6a)” value (TbPFK; 0.05 uM CTCB 405, time 0.138889) was 0.5731 and 0.5324. The “TbPFK reaction time course reading (Figure 6a)” value (TbPFK; 0.05 uM CTCB 405, time 0.15625) was 0.5537 and 0.5159, the “TbPFK reaction time course reading (Figure 6a)” value (TbPFK; 0.05 uM CTCB 405, time 0.173611) was 0.5368 and 0.4994 and the “TbPFK reaction time course reading (Figure 6a)” value (TbPFK; 0.05 uM CTCB 405, time 0.190972) was 0.5212 and 0.4835. For the same compound, the “TbPFK reaction time course reading (Figure 6a)” value (TbPFK; 0.43 uM CTCB 405, time 0.104167) was 0.7703 and 0.7388, the “TbPFK reaction time course reading (Figure 6a)” value (TbPFK; 0.43 uM CTCB 405, time 0.121528) was 0.7663 and 0.7359 and the “TbPFK reaction time course reading (Figure 6a)” value (TbPFK; 0.43 uM CTCB 405, time 0.138889) was 0.7635 and 0.7314. The “TbPFK reaction time course reading (Figure 6a)” value (TbPFK; 0.43 uM CTCB 405, time 0.15625) was 0.7593 and 0.7286, the “TbPFK reaction time course reading (Figure 6a)” value (TbPFK; 0.43 uM CTCB 405, time 0.173611) was 0.7551 and 0.7249 and the “TbPFK reaction time course reading (Figure 6a)” value (TbPFK; 0.43 uM CTCB 405, time 0.190972) was 0.7517 and 0.7206. For the same compound, the “TbPFK reaction time course reading (Figure 6a)” value (TbPFK; 0.43 uM CTCB 405, time 0.208333) was 0.7473 and 0.7169, the “TbPFK reaction time course reading (Figure 6a)” value (TbPFK; 1.29 uM CTCB 405, time 0.104167) was 0.8081 and 0.7679 and the “TbPFK reaction time course reading (Figure 6a)” value (TbPFK; 1.29 uM CTCB 405, time 0.121528) was 0.808 and 0.7688. The “TbPFK reaction time course reading (Figure 6a)” value (TbPFK; 1.29 uM CTCB 405, time 0.138889) was 0.8069 and 0.768, the “TbPFK reaction time course reading (Figure 6a)” value (TbPFK; 1.29 uM CTCB 405, time 0.15625) was 0.8064 and 0.7673 and the “TbPFK reaction time course reading (Figure 6a)” value (TbPFK; 1.29 uM CTCB 405, time 0.173611) was 0.8063 and 0.7675. The “TbPFK reaction time course reading (Figure 6a)” value (TbPFK; 1.29 uM CTCB 405, time 0.190972) was 0.8048 and 0.7672, the “TbPFK reaction time course reading (Figure 6a)” value (TbPFK; 3.88 uM CTCB 405, time 0.104167) was 0.8165 and 0.7707 and the “TbPFK reaction time course reading (Figure 6a)” value (TbPFK; 3.88 uM CTCB 405, time 0.121528) was 0.8167 and 0.7708. The “TbPFK reaction time course reading (Figure 6a)” value (TbPFK; 3.88 uM CTCB 405, time 0.138889) was 0.8177 and 0.7708, the “TbPFK reaction time course reading (Figure 6a)” value (TbPFK; 3.88 uM CTCB 405, time 0.15625) was 0.8174 and 0.7711 and the “TbPFK reaction time course reading (Figure 6a)” value (TbPFK; 3.88 uM CTCB 405, time 0.173611) was 0.8172 and 0.7718. For the same compound, the “TbPFK reaction time course reading (Figure 6a)” value (TbPFK; 3.88 uM CTCB 405, time 0.190972) was 0.8172 and 0.7712, the “TbPFK reaction time course reading (Figure 6a)” value (TbPFK; 11.66 uM CTCB 405, time 0.104167) was 0.818 and 0.7732 and the “TbPFK reaction time course reading (Figure 6a)” value (TbPFK; 11.66 uM CTCB 405, time 0.121528) was 0.8194 and 0.7744. For the same compound, the “TbPFK reaction time course reading (Figure 6a)” value (TbPFK; 11.66 uM CTCB 405, time 0.138889) was 0.8194 and 0.7745, the “TbPFK reaction time course reading (Figure 6a)” value (TbPFK; 11.66 uM CTCB 405, time 0.15625) was 0.8194 and 0.7742 and the “TbPFK reaction time course reading (Figure 6a)” value (TbPFK; 11.66 uM CTCB 405, time 0.173611) was 0.8203 and 0.7754. The “TbPFK reaction time course reading (Figure 6a)” value (TbPFK; 11.66 uM CTCB 405, time 0.190972) was 0.82 and 0.776, the “TbPFK reaction time course reading (Figure 6a)” value (TbPFK; 35 uM CTCB 405, time 0.104167) was 0.7782 and 0.7773 and the “TbPFK reaction time course reading (Figure 6a)” value (TbPFK; 35 uM CTCB 405, time 0.121528) was 0.7782 and 0.776. The “TbPFK reaction time course reading (Figure 6a)” value (TbPFK; 35 uM CTCB 405, time 0.138889) was 0.7789 and 0.7774, the “TbPFK reaction time course reading (Figure 6a)” value (TbPFK; 35 uM CTCB 405, time 0.15625) was 0.7788 and 0.7781 and the “TbPFK reaction time course reading (Figure 6a)” value (TbPFK; 35 uM CTCB 405, time 0.173611) was 0.779 and 0.7789. For the same compound, the “TbPFK reaction time course reading (Figure 6a)” value (TbPFK; 35 uM CTCB 405, time 0.190972) was 0.7794 and 0.7785.
In the case of `CN(C)CCn1ccc2c(ccn2Cc2ccc(Cl)c(Cl)c2)c1=O` [CTCB-405, 1-[(3,4-Dichlorophenyl)methyl]-5-[2-(dimethylamino)ethyl] pyrrolo[3,2-c]pyridin-4-one], the inhibition at 10 µM (CYP2D6) is reported as 60%.
